Experimental data: publication PMC8765320, “Identification of a Proteasome-Targeting Arylsulfonamide with Potential for the Treatment of Chagas’ Disease” (Antimicrobial Agents and Chemotherapy, 2022)
Read-outs that look alike come from different tables or passages of the source.

Experiments:
T. cruzi epimastigotes = assay: T. cruzi epimastigote drug sensitivity assay (resazurin); format: cell-based, Trypanosoma cruzi; conditions: Trypanosoma cruzi
Method: To examine the effects of test compounds on the growth of T. cruzi epimastigotes, mid-log-phase parasites were seeded into 96-well plates at a cell density of 5 × 10^5 cells ml^−1. Cells were exposed to test compounds over a range of concentrations (2-fold serial dilutions). Cells were incubated for 4 days, and then 20 μl of 2.5 mM resazurin was added to each well, before measuring the fluorescence (excitation, 528 nm; emission, 590 nm), following a further 24 h of incubation. […] In this equation, [I] represents the inhibitor concentration, and m is the slope factor. Experiments were repeated at least two times, and the data are presented as means plus the standard deviations.

[1] = tested on: chymotrypsin-like activity of the T. cruzi proteasome; assay: Proteasome chymotrypsin-like activity luminescence assay; format: biochemical, Trypanosoma cruzi; conditions: at concentrations up to and including 3.3 μM
Method: Initially, the impact of compound 1 on the chymotrypsin-like proteolytic activity of the proteasome was assessed using a commercially available indirect enzyme-based luminescent assay. In this assay, activity is monitored in proteasome-enriched T. cruzi epimastigote lysates using Suc-LLVY-aminoluciferin as a substrate ([16]). […] Thus, an alternative route to determine the impact of this arylsulfonamide compound on T. cruzi proteasome function was required.
The effect of inhibitors on the chymotrypsin-like activity of the T. cruzi proteasome was assessed by using a luminescence-based assay, as previously described ([21]).

[2] = tested on: T. cruzi malic enzyme (cTcME); assay: Malic enzyme assay in clarified epimastigote lysates (NADPH production, 340 nm); format: biochemical, Trypanosoma cruzi
Source text: Malic enzyme (ME) catalyzes the oxidative decarboxylation of malate to pyruvate with the concomitant reduction of NAD(P)^+ to NAD(P)H. In light of our TPP studies, we next sought to determine whether the binding of compound 1 to cTcME inhibits enzymatic activity. The ME-dependent production of NADPH was monitored in clarified lysates of T. cruzi epimastigotes at 340 nm after the addition of malate. In the first instance, this assay was validated using ATR-073, an established inhibitor of cTcME ([27]). […] Similarly, preincubation of lysates with 20 μM and 1 μM concentrations of compound 1 inhibited ME activity by 96 and 68%, respectively (Fig. 4C). […] It should be noted that ATR-073 and compound 1 are structurally similar, both being substituted N-phenyl aryl sulfonamides, this common moiety constituting the pharmacophore of this chemical series.
Logarithmic T. cruzi epimastigotes were harvested (1,690 × g, 10 min, 4°C), washed once in ice-cold phosphate-buffered saline, and resuspended at 2 × 10^9 cells ml^−1 in lysis buffer (10 mM phosphate buffer [pH 7.2], 10 mM EDTA, 5 mM benzamidine, 5 mM phenanthroline, 0.1 mM phenylmethylsulfonyl fluoride) containing 1 mg ml^−1 digitonin, followed by incubation at 28°C for 10 min. The resulting lysate was then centrifuged (13,000 × g, 10 min, 4°C), and the supernatant was harvested and stored on ice. The protein concentration of this clarified lysate was determined by using a standard Bio-Rad protein assay.
The activity of malic enzyme was assayed as previously described ([42]), with minor modifications. T. cruzi clarified lysate (30 μl) was added to a reaction mixture (500 μl final volume) containing 50 mM Tris-HCl buffer (pH 7.6), 1 mM MnCl2, and 0.12 mM NADP^+. Reactions were initiated by the addition of 5 mM L-malate. The reduction of NADP^+ was monitored at 340 nm using a UV-2401 spectrophotometer (Shimadzu). To monitor the effect of test compounds on the activity of malic enzyme, compounds (1 and 20 μM) were preincubated for 10 min with the lysate in the reaction mixture. DMSO (0.2%) was used as control. All enzymatic activities were calculated as Δabs min^−1 mg^−1 of protein.

CCC(C)NC(=O)c1ccccc1NS(=O)(=O)c1ccc2ccccc2c1 (stereo not shown) [ATR-073]
EC50 (T. cruzi epimastigotes; WT, Fig. S3B, one biological replicate): 49 ± 29 µM
EC50 (T. cruzi epimastigotes; compound 2-Res V cells (so in the source), Fig. S3B, one biological replicate, read-out: EC50): 51 ± 18 µM
EC50 (T. cruzi epimastigotes; epimastigotes, cell line Wild-type, weighted mean, n ≥ 3, read-out: ATR-073 EC50 values): 34 ± 1 µM
EC50 (T. cruzi epimastigotes; epimastigotes, cell line cTcME OE, weighted mean, n ≥ 3, read-out: ATR-073 EC50 values): 32 ± 2 µM
effect on the chymotrypsin-like activity of the proteasome [1]: no effect
reduction in ME activity ([2]; preincubation of lysates with 1 μM): 63%
reduction in ME activity ([2]; preincubation of lysates with 20 μM): 96%
